Tests used:
Settings in all cases: incubation time: 72 h
[1] = system: BT-474; assay: normalised response (% of control), CellTox Green; higher = less cell death (100 = DMSO, 0 = benzethonium chloride kill control)
Outline: (§1)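 Compound was dispensed into 384-well plates at 5 concentrations in 10-fold steps spanning a 10,000-fold range specific to that compound. Breast cancer cell lines were added as 20 µl suspension and left for 72 h before CellTox Green fluorescence (485/520 nm) and then CellTiter-Glo luminescence, read after 10 min at room temperature. Each reported value is the normalised signal at one concentration, with 0.1 % DMSO set at 100 and a positive kill control at 0 on each plate.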

[2] = system: BT-549; assay: as above
Outline: as §1

[3] = system: CAL-120; assay: as above
Outline: as §1

[4] = system: CAL-148; assay: as above
Outline: as §1

[5] = system: CAL-51; assay: as above
Outline: as §1

[6] = system: CAL-85-1; assay: as above
Outline: as §1

[7] = system: DU-4475; assay: as above
Outline: as §1

[8] = system: HCC1143; assay: as above
Outline: as §1

[9] = system: HCC1599; assay: as above
Outline: as §1

[10] = system: HCC1937; assay: as above
Outline: as §1

[11] = system: HDQ-P1; assay: as above
Outline: as §1

[12] = system: Hs578T; assay: as above
Outline: as §1

[13] = system: MCF-10A; assay: as above
Outline: as §1

[14] = system: MDA-MB-231; assay: as above
Outline: as §1

[15] = system: MDA-MB-436; assay: as above
Outline: as §1

[16] = system: MDA-MB-453; assay: as above
Outline: as §1

[17] = system: MDA-MB-468; assay: as above
Outline: as §1

[18] = system: MFM-223; assay: as above
Outline: as §1

[19] = system: BT-474; assay: normalised response (% of control), CellTiter-Glo; higher = more viable cells (100 = DMSO, 0 = benzethonium chloride kill control)
Description: (§2)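 DSRT, 72 h incubation, CellTox Green / CellTiter-Glo readout. Signal is normalised to DMSO and benzethonium chloride controls. Value is the normalised response at the highest dose.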

[20] = system: BT-549; assay: as above
Description: as §2

[21] = system: CAL-120; assay: as above
Description: as §2

[22] = system: CAL-148; assay: as above
Description: as §2

[23] = system: CAL-51; assay: as above
Description: as §2

[24] = system: CAL-85-1; assay: as above
Description: as §2

[25] = system: DU-4475; assay: as above
Description: as §2

[26] = system: HCC1143; assay: as above
Description: as §2

[27] = system: HCC1599; assay: as above
Description: as §2

[28] = system: HCC1937; assay: as above
Description: as §2

[29] = system: HDQ-P1; assay: as above
Description: as §2

[30] = system: Hs578T; assay: as above
Description: as §2

[31] = system: MCF-10A; assay: as above
Description: as §2

[32] = system: MDA-MB-231; assay: as above
Description: as §2

[33] = system: MDA-MB-436; assay: as above
Description: as §2

[34] = system: MDA-MB-453; assay: as above
Description: as §2

[35] = system: MDA-MB-468; assay: as above
Description: as §2

[36] = system: MFM-223; assay: as above
Description: as §2

[37] = system: SK-BR-3; assay: as above
Description: as §2

Compound	normalised response [1] [%]	normalised response [2] [%]	normalised response [3] [%]	normalised response [4] [%]	normalised response [5] [%]	normalised response [6] [%]	normalised response [7] [%]	normalised response [8] [%]	normalised response [9] [%]	normalised response [10] [%]	normalised response [11] [%]	normalised response [12] [%]	normalised response [13] [%]	normalised response [14] [%]	normalised response [15] [%]	normalised response [16] [%]	normalised response [17] [%]	normalised response [18] [%]	normalised response [19] [%]	normalised response [20] [%]	normalised response [21] [%]	normalised response [22] [%]	normalised response [23] [%]	normalised response [24] [%]	normalised response [25] [%]	normalised response [26] [%]	normalised response [27] [%]	normalised response [28] [%]	normalised response [29] [%]	normalised response [30] [%]	normalised response [31] [%]	normalised response [32] [%]	normalised response [33] [%]	normalised response [34] [%]	normalised response [35] [%]	normalised response [36] [%]	normalised response [37] [%]
Cn1cc(C[C@@H](N)C(=O)O)c2ccccc21 [1-methyl-D-tryptophan] (5000 nM)	99.7	90	99.4	105	102	106	96.5	124	98	106	60.4	101	90.3	99.5	93.1	99.9	53	103	96.4	97.8	101	85.7	107	98.3	92.9	102	87.9	99.5	111	97	97.4	95.7	95.1	91.4	96.7	92.5	93.2
CC[C@H](CC#N)OC(=O)N[C@@H](C)c1cccc(NC(=O)Nc2ccc(-c3cnco3)c(OC)c2)c1 [AVN944] (10000 nM)	96.4	88.5	102	67.1	78.9	101	89.2	105	97.1	96.6	94.6	48	85.2	110	97.9	107	124	100	48.8	27	50.6	41.4	19	38.4	15.7	31.5	33.4	42.2	42.3	35.4	58.9	47	38.1	62.3	30	49.7	37.1
CCc1cnn2c(NCc3ccc[n+]([O-])c3)cc(N3CCCC[C@H]3CCO)nc12 [Dinaciclib] (1000 nM)	88.3	81.4	80.6	46.3	71.8	4.91	90.4	88.2	74.5	83.6	48.4	36.3	47.1	-18.6	86.5	88.2	31.8	42.2	20.2	14	38.1	67.5	14.3	8.86	21.8	19.3	12.3	27.8	23	17.1	21.3	6.98	19.3	20.6	6.62	11.5	2.06
COc1cc(Nc2ncc(F)c(Nc3ccc4c(n3)N(COP(=O)(O)O)C(=O)C(C)(C)O4)n2)cc(OC)c1OC [Fostamatinib] (2500 nM)	77.7	64.8	67.8	67.6	31.6	-13.8	90.3	100	92.7	74.1	73.6	19.2	69	-11.9	86.6	89.1	37.4	87.5	27	39.7	43.7	106	50.8	30.5	65.1	63.2	66.8	54	26.1	15.1	15.1	20.3	67.5	64.8	64.4	37.8	60.3
CC(C)NC[C@@H](C(=O)N1CCN(c2ncnc3c2[C@H](C)C[C@H]3O)CC1)c1ccc(Cl)cc1 [GDC-0068] (10000 nM)	95.7	76.8	104	29.8	77.1	100	96.6	110	95.9	97.5	67.2	119	101	124	96	90.9	46.7	74.7	86.6	55.3	70.3	3.54	36.8	66.1	75.2	55.8	82.5	61.5	58.3	65.1	58.9	89.5	77.5	29.6	43.4	23.3	44.3
CCCc1cc(C)[nH]c(=O)c1CNC(=O)c1cc(-c2ccnc(N3CCN(C)CC3)c2)cc2c1cnn2C(C)C [GSK343] (10000 nM)	4.03	97.6	78.5	85.5	106	56.8	92.7	68.4	73.6	101	80	79.2	90.1	-68.4	95.2	-8.4	114	77.3	11.3	77.1	79.4	62.8	120	30.2	77.8	68.9	22.8	100	66.7	74.4	97.5	7.92	53.9	13.7	11.1	41.8	11.3
COc1cc2c(cc1-c1c(C)noc1C)ncc1[nH]c(=O)n([C@H](C)c3ccccn3)c12 [I-BET151] (10000 nM)	95.2	81.8	76.1	72.4	47.1	48.9	81.2	104	93.5	66.3	72.8	112	28.1	45.2	35.5	98.5	-18.1	104	59.3	38.5	64	71.7	59.5	30.7	53.3	59.3	67.6	72.2	67	35	54.5	62.5	75.6	21.8	50.6	49.9	53
CC(C)n1nc(-c2ccc3oc(N)nc3c2)c2c(N)ncnc21 [INK128] (1000 nM)	93.8	93.2	97.3	42	85.2	115	86.9	113	99.4	103	98.4	-29.1	92	87.6	91.4	97.1	153	28.3	41.1	19.5	18.5	16.1	20.9	24.2	18.4	22.1	79.2	37	29.6	24.5	25.1	33.9	45.8	30	18.7	26.5	17.4
N[C@@H](Cc1ccc(N(CCCl)CCCl)cc1)C(=O)O [Melphalan] (12500 nM)	-70.3	-143	-41.5	-8.15	-37.5	-78.3	-7.06	-23.3	18.8	-39.4	-14.5	-177	-119	-127	-19.3	-17.4	-317	-19.4	2.03	0.03	3.52	1.23	0.13	0.13	0.09	0.96	0.01	3.24	0.84	-0.1	0.08	0.1	0.88	0.28	0.28	0.21	-0.14

Reference: the supplement of paper PMC4862054
